Reference: article PMC9289467, “A Novel Multifunctional 5,6-Dimethoxy-Indanone-Chalcone-Carbamate Hybrids Alleviates Cognitive Decline in Alzheimer’s Disease by Dual Inhibition of Acetylcholinesterase and Inflammation” (Frontiers in Aging Neuroscience, 2022)

How the values were obtained:
Format in all cases: in vivo
[1] = test system: GFAP positive astrocytes; experiment: GFAP immunohistochemistry, Sholl analysis of astrocytes, APP/PS1 mice; settings: AP5 40 mg/kg once daily 5 months
Protocol: (§1) APP/PS1 mice of ages 6 months were randomly divided into vehicle (APP/PS1, n = 10) and treatment groups (AP5, n = 10), which were intragastrically administered with AP5 (40 mg/kg) once daily for consecutive 5 months. AP5 was dissolved in distilled water containing 1% sodium carboxymethyl cellulose.
The fixed hemibrains were paraffin-embedded and sectioned in the coronal plane. The slices were deparaffinized with xylene and rehydrated by a series of gradient alcohols. Antigen retrieval through microwave boiling was performed with 10 mM sodium citrate solution at pH 6.0. The slices were cooled down to room temperature and then rinsed in PBS solution. Then the slices were incubated in 10% goat serum blocking solution for 1 h followed by primary antibodies overnight at 4°C. The next day, the slides were labeled with biotinylated or fluorescent secondary antibodies. Slices were washed three times with PBS before being mounted. Images were captured using a SpinSR10 scanner (Olympus, Tokyo, Japan). […]
After deparaffinization and antigen retrieval, the sections were incubated with 0.3% hydrogen peroxide (H2O2) to inhibit endogenous peroxidase activity for 20 min and blocked by goat serum for 30 min at37°C. Slides were subsequently incubated overnight with specific primary antibodies: anti-Iba1(1:100, ab178847, Abcam, Cambridge, UK) or anti-GFAP (1:100, bs-0199R, Bioss) at4 °C. […]

[2] = test system: APPfl, CTFβ, BACE, PS1; experiment: Western blot of APP processing, APP/PS1 mice; settings: cortex and hippocampus, AP5-treated vs APP/PS1 mice
Protocol: as §1
Frozen hippocampus and cortex were homogenized in pre-cooling RIPA buffer (P0013B, Beyotime) supplemented with 1 mM phenylmethanesulfonyl fluoride (PMSF) and cocktail of protease and phosphatase inhibitors. […] The membranes were incubated with 5% fat-free milk blocking solution for 1 h at room temperature and then probed with primary antibodies overnight at 4°C. […] Densitometric analysis was performed using Quantity One software (Bio-Rad, Berkeley, CA, United States). […]
(1:100, BAF2655, R&D, Minneapolis, MN, USA). […] For the quantification of Aβ plaque-associated microglia and astrocyte, Iba1- and GFAP-immunopositive cells around plaques were counted. On each slide, ten plaques were randomly determined and the microglia (nuclei) in the immediate vicinity (two times the plaque diameter) of each plaque were counted. For colocalization of PSD95 and synaptophysin, images were analyzed with the puncta analyzer plugin with a minimum pixel specification of 4 in Image Jand thresholding was consistent for every image. […]

[3] = test system: recognition memory; experiment: Spatial object location task; settings: at 24 h, vs APP/PS1 mice without treatment
Protocol: as §1
To investigate whether AP5 treatment plays a key role in cognition improvement of APP/PS1 mice models, the five different behavioral tests were sequentially carried out in the following order: open field, novel object recognition task, spatial object-location task, Y-maze, and Morris water maze (MWM). AP5 was also administered daily during the test periods. […]
For the spatial object location task (an object moved to a new location), mice first explored the two objects placed in two corners of the open field for 5 min in training period. After 1 h or 24 h, the mice received a 5 min retention trial with a new spatial configuration with an object moved from one corner to the opposite corner of the open field.The discrimination index was calculated and defined as: (time spent exploring the displaced object-time spent exploring nondisplaced objects) / total exploration time for the two objects during the 5 min retention trial. […]
guided to platform and allowed to stay on it for 30 s. The time (escape latency) for each mouse to find the way and reach the target platform was analyzed. […]

[4] = test system: ThS-positive plaque; experiment: Thioflavin S staining of amyloid plaques, APP/PS1 mice; settings: cortex and hippocampus; AP5 40 mg/kg once daily 5 months
Protocol: as §1
The hemisphere slices were stained with 0.5% fluorescent amyloid dye Thioflavin S (ThS, T1892, Sigma Aldrich) in the dark for 10 min followed by three washes with 50% ethyl alcohol and a final wash in PBS. Image analysis of the number and size of cortical and hippocampal ThS positive plaques was carried out on Image J FIJI software with “analyze particles” function.

CCN(C)C(=O)Oc1cccc(/C=C2\Cc3cc(OC)c(OC)cc3C2=O)c1 [AP5, (E)-3-((5,6-dimethoxy-1-oxo-1,3-dihydro-2H-inden-2-ylidene)-methyl)phenylethyl(methyl)carbamate]
reactive phenotypes of astrocytes (ramification index, sum of intersects) [1]: attenuated
expression levels of APPfl, CTFβ, BACE and presenilin 1 [2]: no significant changes
discrimination index, spatial object location [3]: significantly better
load of ThS-positive plaque [4]: pronounced reduction
number of ThS-positive plaque [4]: pronounced reduction
